Assay results taken from ChEMBL document CHEMBL1201862, “PubChem BioAssay data set” (2004).
The source made the active and inactive calls.

How the values were obtained:
[1] = M. tuberculosis H37Rv growth inhibitors, H37Rv strain (AID 1626); assay type: functional
Protein skinhead-1 = molecular target: T1, Protein skinhead-1 (Caenorhabditis elegans, UniProt P34707); assay type: functional
T1 sequence (P34707 whole entry): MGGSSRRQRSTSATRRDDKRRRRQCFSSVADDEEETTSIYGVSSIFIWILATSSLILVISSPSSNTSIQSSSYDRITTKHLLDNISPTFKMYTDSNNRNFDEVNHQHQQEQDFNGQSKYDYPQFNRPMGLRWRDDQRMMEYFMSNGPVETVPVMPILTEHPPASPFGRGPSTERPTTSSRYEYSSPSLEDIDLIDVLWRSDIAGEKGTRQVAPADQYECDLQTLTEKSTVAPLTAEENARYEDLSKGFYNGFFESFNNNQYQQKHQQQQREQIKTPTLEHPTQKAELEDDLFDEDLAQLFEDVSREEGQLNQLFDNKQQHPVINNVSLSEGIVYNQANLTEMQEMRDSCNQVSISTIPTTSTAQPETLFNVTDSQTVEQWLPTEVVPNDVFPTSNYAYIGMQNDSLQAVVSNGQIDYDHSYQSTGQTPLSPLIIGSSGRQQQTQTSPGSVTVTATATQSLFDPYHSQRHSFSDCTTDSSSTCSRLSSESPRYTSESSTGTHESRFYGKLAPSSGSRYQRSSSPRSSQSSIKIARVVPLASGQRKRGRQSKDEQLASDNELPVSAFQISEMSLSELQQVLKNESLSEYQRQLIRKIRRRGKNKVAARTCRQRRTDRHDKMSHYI

[2] = molecular target: T2, Oxysterols receptor LXR-beta (Homo sapiens, UniProt P55055); assay type: functional, cell-based;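 note: Cell-based luminescence dose-response assay of agonist activity at LXR, run as a confirmatory counterscreen to a daf-12 agonist screen; HEK293 cells with Gal4-LXR fusion and GAL4-driven luciferase reporter; agonist potency from rising luciferase signal of a Gal4-LXR reporter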
T2 sequence (P55055 whole entry): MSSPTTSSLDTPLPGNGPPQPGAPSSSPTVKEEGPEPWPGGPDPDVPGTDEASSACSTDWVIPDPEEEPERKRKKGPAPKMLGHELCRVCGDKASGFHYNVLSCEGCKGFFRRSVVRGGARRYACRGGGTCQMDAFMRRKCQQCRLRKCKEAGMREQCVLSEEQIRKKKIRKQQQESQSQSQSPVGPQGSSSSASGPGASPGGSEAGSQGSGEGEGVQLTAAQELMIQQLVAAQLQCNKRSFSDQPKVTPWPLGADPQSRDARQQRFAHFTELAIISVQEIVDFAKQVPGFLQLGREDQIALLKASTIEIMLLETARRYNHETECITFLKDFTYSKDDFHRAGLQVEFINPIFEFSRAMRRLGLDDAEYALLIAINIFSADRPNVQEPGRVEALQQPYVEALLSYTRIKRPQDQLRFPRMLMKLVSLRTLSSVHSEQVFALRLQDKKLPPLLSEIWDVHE

cells [3] = experiment: cells
[4] = viability of uninfected HEp-2 cells – cell-based, HTS, cytotoxicity control for RSV inhibitor project, dose response (AID 2410); assay type: functional; details: human respiratory syncytial virus
BJ [5] = experiment: BJ-TERT fibroblast viability loss – cell-based, RAS-independent, luminescence, dose response (AID 1933); assay type: functional; details: Homo sapiens
BJ [6] = experiment: cells; assay type: functional, cell-based; details: Homo sapiens
BJ [7] = experiment: BJ-TERT-LT-ST fibroblast viability loss – cell-based, RAS-independent, luminescence, dose response (AID 1935); assay type: functional; details: Homo sapiens;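 note: BJ fibroblasts immortalized with TERT plus LT and ST oncogenes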
[8] = DRD fibroblast viability loss – cell-based, non-viral oncogenic, luminescence, dose response (AID 1934); assay type: functional; details: Homo sapiens
Vero [9] = experiment: cells; assay type: functional, cell-based; details: Chlorocebus sabaeus
Vero [10] = experiment: cells; assay type: functional; details: Chlorocebus sabaeus
cells [11] = experiment: cells; remark: listed apart in the source
[12] = molecular target: Lysosomal acid glucosylceramidase (Homo sapiens, UniProt P04062); experiment: Dose response cell-based high throughput screening assay to identify enhancers of beta-glucosidase activity. [Related pubchem assays: 784 ]; assay type: functional
Sequence of Lysosomal acid glucosylceramidase (P04062 whole entry): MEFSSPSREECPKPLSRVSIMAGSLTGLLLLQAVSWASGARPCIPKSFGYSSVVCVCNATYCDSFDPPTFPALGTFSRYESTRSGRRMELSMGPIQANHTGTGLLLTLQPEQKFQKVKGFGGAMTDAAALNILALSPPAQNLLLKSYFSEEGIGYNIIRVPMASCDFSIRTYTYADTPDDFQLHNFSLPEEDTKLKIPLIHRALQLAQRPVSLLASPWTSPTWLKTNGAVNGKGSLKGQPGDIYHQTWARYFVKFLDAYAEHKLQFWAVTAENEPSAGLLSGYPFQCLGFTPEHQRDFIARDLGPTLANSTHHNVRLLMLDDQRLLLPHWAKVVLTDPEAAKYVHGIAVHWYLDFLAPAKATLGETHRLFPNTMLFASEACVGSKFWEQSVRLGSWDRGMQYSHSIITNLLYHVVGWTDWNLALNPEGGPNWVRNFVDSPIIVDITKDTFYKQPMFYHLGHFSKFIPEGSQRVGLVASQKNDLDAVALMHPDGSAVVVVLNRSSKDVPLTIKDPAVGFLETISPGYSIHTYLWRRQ

[13] = Trypanosoma cruzi growth suppression in host cells – NIH3T3 host cells, beta-gal luminescence, confirmation (AID 2044); assay type: functional, cell-based;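 note: intracellular parasites grown in NIH/3T3 mouse fibroblasts as host cells; luminescent beta-galactosidase reporter signal from transgenic T. cruzi replicating inside host cells; inhibitors lower the luminescence signal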
[14] = NIH3T3 cell viability loss – ATP luminescence, mouse fibroblasts, counter-screen, dose response (AID 2010); assay type: functional, cell-based;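 note: cells exposed to compound for about 90 hours before reading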
[15] = Luminescence Cell-Based Dose Response to Identify Activators of 5'UTR Stem-Loop Driven Prion Protein mRNA Translation in H4-C Neuroglioblastoma Cells. [Related pubchem assays: 1829 (Project Summary), 1814 (Primary HTS)]; assay type: functional
[16] = Luminescence Cell-Based Dose Response HTS to Identify Activators of Luciferase Translation or Activity in H4 […] Cells. [Related pubchem assays: 1829 (Project Summary), 1814 (Primary HTS)]; assay type: functional
H4 = experiment: Luminescence Cell-Based Dose Response HTS to Identify Activators of 5'UTR Stem-Loop Driven Prion Protein mRNA Translation in H4 Neuroglioblastoma Cells. [Related pubchem assays: 1829 (Project Summary), 1814 (Primary HTS)]; assay type: functional; details: Homo sapiens
[17] = Luminescence Cell-Based Dose Response to Identify Activators of Luciferase Translation or Activity in H4-C Neuroglioblastoma Cells. [Related pubchem assays: 1829 (Project Summary), 1814 (Primary HTS)]; assay type: functional
[18] = HPDE-C7 pancreatic duct cell viability loss – fluorescence, HTS (AID 430); assay type: functional, cell-based; details: Homo sapiens
[19] = viability loss of HPDE-C7K cells – cell-based, fluorescence, HTS, primary screen (AID 431); assay type: functional; details: Homo sapiens
[20] = Luminescence Cell-Based Dose Confirmation to Identify Activators of 5'UTR Stem-Loop Driven Alpha-Synuclein mRNA Translation in H4 Neuroglioblastoma Cells. [Related pubchem assays: 1829 (Project Summary), 1814 (Primary HTS)]; assay type: functional
Caspase-3 = molecular target: T3, Caspase-3 (Homo sapiens, UniProt P42574); assay type: functional;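 note: Dose-response selectivity test against caspase-3 for candidate inhibitors of sentrin-specific proteases (SENPs)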
T3 sequence (P42574 whole entry): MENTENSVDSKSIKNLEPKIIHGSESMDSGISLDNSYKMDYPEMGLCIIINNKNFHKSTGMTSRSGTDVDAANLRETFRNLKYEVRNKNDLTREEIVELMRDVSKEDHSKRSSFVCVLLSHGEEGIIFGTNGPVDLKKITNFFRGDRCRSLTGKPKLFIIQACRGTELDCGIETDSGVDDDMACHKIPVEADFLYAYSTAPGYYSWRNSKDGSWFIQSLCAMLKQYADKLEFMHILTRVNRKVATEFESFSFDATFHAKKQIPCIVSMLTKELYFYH

[21] = molecular target: T4, Sentrin-specific protease 7 (Homo sapiens, UniProt Q9BQF6); assay type: functional;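 note: Luminescence-based dose-response confirmation of ultra-high-throughput screening hits, measuring inhibition of SENP7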
T4 sequence (Q9BQF6 whole entry): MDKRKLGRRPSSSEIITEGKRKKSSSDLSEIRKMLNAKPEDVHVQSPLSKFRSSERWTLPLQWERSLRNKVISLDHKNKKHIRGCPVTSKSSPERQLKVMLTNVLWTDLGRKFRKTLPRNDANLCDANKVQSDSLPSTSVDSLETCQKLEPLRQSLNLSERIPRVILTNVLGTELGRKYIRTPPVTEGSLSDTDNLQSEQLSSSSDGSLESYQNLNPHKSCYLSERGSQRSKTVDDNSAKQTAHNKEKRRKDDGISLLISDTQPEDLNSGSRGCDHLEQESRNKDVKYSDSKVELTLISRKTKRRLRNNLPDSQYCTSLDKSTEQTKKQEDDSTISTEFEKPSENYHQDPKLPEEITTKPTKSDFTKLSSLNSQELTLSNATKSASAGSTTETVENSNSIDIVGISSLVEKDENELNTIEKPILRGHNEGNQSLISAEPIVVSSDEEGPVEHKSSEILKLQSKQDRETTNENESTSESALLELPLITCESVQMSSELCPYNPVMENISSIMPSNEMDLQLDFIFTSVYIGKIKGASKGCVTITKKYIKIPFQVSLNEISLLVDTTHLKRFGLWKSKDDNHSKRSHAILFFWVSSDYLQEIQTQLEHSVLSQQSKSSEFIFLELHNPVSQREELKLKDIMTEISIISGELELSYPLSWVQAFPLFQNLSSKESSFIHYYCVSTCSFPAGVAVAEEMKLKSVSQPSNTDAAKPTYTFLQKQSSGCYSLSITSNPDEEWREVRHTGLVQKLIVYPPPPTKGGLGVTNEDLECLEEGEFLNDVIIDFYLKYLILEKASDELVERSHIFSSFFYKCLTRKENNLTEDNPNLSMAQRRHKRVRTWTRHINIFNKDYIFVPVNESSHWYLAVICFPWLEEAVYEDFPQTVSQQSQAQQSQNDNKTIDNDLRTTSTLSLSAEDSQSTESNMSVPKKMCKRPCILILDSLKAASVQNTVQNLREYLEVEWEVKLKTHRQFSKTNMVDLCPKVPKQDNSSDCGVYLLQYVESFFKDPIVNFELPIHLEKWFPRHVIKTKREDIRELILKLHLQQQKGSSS

[22] = molecular target: T5, Sentrin-specific protease 6 (Homo sapiens, UniProt Q9GZR1); assay type: functional;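 note: Luminescence-based dose-response confirmatory assay of SENP6 inhibition, following up an ultra-high-throughput screen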
T5 sequence (Q9GZR1 whole entry): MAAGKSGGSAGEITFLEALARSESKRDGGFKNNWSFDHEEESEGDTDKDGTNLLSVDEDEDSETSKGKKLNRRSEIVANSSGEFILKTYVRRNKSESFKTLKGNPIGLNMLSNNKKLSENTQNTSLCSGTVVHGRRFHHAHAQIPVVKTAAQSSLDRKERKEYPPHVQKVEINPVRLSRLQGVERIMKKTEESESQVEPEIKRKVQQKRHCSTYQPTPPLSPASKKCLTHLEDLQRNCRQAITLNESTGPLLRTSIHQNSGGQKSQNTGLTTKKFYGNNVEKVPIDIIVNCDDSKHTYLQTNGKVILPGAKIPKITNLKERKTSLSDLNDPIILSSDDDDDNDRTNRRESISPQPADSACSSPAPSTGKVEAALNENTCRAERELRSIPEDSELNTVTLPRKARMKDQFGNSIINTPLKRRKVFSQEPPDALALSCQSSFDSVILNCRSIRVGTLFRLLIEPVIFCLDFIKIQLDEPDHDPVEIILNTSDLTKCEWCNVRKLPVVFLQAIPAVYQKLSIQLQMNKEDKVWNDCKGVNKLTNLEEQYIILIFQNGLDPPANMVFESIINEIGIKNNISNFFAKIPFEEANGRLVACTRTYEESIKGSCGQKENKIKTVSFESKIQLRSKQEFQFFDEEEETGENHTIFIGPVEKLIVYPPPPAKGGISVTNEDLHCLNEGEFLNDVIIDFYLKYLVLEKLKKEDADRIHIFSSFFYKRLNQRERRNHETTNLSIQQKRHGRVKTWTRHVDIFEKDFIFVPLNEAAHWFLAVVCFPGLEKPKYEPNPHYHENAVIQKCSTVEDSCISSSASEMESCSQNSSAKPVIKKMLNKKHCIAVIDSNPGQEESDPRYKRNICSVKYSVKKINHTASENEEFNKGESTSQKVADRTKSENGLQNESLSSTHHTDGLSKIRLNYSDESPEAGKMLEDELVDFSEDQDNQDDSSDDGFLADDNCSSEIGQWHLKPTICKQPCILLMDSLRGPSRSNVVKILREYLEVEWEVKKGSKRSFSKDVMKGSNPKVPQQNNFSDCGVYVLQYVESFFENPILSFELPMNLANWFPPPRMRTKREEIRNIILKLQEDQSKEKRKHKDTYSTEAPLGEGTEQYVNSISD

[23] = molecular target: T6, Sentrin-specific protease 8 (Homo sapiens, UniProt Q96LD8); assay type: functional;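 note: luminescence read-out of SENP8 inhibition, dose-response confirmation following an ultra-high-throughput screen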
T6 sequence (Q96LD8 whole entry): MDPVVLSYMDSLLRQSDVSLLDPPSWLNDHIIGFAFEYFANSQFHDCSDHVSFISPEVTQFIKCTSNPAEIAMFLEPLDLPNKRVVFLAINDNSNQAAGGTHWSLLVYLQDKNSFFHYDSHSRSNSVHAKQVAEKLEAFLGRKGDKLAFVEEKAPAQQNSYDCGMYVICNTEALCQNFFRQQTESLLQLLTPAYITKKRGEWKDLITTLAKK

[24] = molecular target: Disintegrin and metalloproteinase domain-containing protein 17 (Homo sapiens, UniProt P78536); experiment: exosite inhibitors of ADAM17, dose response, biochemical (AID 743260)
Sequence of Disintegrin and metalloproteinase domain-containing protein 17 (P78536 whole entry, the tested form may be a part): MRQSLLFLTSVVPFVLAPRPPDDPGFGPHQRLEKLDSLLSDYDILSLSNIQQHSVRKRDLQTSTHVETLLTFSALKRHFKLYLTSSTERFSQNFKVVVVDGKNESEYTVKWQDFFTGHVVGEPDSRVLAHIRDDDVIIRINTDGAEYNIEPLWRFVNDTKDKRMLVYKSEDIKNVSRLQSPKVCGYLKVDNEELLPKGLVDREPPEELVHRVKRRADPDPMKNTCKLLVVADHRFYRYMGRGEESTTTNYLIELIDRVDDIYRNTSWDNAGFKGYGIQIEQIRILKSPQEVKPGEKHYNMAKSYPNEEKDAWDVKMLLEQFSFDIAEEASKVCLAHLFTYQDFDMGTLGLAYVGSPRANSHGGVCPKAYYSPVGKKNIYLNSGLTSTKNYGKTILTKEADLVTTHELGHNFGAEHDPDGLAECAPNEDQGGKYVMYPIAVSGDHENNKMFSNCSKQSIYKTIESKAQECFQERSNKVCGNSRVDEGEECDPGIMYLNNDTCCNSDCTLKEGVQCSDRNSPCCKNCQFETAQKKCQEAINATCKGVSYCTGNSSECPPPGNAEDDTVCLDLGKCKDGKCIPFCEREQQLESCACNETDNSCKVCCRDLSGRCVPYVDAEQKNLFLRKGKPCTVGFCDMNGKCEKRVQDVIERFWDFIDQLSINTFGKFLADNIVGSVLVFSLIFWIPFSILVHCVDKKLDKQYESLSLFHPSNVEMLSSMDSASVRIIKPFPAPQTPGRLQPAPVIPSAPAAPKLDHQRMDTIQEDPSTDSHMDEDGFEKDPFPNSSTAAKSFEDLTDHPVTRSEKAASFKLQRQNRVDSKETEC

Aminopeptidase N = Aminopeptidase N (Plasmodium falciparum FcB1/Columbia, UniProt O96935); experiment: malaria alanyl aminopeptidase activity blockers – biochemical, fluorogenic H-Leu-NHMec substrate, 1536-well (AID 1445); design: species or system Plasmodium falciparum 3D7, 3D7
Sequence of Aminopeptidase N (O96935 whole entry): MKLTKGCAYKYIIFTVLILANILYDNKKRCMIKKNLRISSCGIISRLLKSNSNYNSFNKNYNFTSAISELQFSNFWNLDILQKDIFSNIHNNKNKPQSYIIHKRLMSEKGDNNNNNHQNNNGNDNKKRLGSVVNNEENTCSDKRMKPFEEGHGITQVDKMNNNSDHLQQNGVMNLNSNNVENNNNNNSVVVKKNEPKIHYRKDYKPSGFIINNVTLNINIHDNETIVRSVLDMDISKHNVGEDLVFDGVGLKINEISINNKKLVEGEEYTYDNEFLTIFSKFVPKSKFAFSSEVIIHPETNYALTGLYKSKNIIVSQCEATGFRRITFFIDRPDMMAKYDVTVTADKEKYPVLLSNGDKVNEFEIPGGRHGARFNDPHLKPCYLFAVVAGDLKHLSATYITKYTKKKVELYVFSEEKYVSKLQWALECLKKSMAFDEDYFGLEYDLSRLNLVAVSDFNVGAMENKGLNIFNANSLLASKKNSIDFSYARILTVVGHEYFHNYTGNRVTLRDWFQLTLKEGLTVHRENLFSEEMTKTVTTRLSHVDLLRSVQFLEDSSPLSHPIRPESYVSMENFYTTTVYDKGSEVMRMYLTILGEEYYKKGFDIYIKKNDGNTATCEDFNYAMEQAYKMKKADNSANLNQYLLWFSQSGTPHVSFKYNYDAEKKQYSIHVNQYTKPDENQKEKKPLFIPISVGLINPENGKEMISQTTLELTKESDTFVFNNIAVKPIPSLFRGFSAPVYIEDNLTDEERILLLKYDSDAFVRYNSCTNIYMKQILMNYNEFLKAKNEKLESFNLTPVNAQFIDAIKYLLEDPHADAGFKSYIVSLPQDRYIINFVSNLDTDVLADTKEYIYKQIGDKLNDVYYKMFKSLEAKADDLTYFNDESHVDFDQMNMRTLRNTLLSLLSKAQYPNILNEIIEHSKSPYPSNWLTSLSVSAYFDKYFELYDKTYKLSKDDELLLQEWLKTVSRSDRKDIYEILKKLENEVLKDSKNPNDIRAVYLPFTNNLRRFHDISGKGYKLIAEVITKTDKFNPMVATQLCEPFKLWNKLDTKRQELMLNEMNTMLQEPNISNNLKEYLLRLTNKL

[25] = molecular target: T7, Polyadenylate-binding protein 1 (Homo sapiens, UniProt P11940); experiment: MLLE binding blockers, Cy5 peptide tracer – biochemical, fluorescence polarization, Cy5-PAM2 peptide, secondary, miRNA deadenylation inhibitor project, dose response (AID 602260); assay type: functional; details: read-out: IC50_Mean
T7 sequence (P11940 whole entry, the tested form may be a part): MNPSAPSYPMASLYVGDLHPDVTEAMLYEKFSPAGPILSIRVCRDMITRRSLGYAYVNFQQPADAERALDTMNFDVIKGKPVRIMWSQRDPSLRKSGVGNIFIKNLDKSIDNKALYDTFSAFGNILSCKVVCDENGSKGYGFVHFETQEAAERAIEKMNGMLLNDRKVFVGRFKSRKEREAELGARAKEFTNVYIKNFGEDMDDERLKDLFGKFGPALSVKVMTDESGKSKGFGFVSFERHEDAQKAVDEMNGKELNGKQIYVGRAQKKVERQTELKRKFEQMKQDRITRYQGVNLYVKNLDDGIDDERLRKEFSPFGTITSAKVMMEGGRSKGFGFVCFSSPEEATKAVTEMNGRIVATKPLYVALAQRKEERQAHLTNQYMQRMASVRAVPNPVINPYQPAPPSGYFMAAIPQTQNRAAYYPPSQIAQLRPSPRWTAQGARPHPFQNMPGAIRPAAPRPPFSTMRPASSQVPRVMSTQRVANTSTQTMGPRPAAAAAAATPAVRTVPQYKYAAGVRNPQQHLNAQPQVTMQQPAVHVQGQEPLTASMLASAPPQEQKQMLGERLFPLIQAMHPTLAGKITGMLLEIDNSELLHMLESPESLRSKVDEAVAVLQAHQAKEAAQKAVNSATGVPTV

[26] = molecular target: T7, Polyadenylate-binding protein 1; experiment: MLLE domain peptide-binding blockers, IC50 – biochemical, fluorescence polarization, FITC-PAM2 peptide, dose response (AID 602259); assay type: functional; details: read-out: IC50_Mean

## Cc1ccc(N/C=C(/C(=O)c2ccco2)C(=O)C(F)(F)F)cc1Cl
[1]
  IC50: > 100 µM (active)
Protein skinhead-1
  IC50: 27.2 µM (active)
[2]
  EC50: > 67.5 µM (inactive)
Cells [3]
  EC50: > 67.5 µM (inactive)

## COc1cc(NC(=S)NC(=O)c2ccc(C(C)(C)C)cc2)ccc1NC(=O)c1cccs1
[4]
  CC50: 18.9 µM (active)
BJ [5]
  EC50: 60.4 µM (active)
BJ [6]
  EC50: 32.9 µM (inconclusive)
BJ [7]
  EC50: > 150 µM (inconclusive)
[8]
  EC50: 72.6 µM (active)
Vero [9]
  IC50: 2.5 µM (active)
Vero [10]
  CC50: > 25 µM (active)
Cells [11]
  IC50: 8.44 µM (active)

## Sc1nnc(Cc2ccccc2)n1Cc1ccco1
[12]
  EC50: > 50 µM (not active)

## COC(=O)c1cc(NC(=O)CC2S/C(=N/c3ccccc3)N(CCc3c[nH]c4ccccc34)C2=O)cc(C(=O)OC)c1 (centres undefined)
[4]
  CC50: > 50 µM (active)
[13]
  EC50: 1.11 µM (active)
[14]
  EC50: > 60 µM (inconclusive)
Cells [11]
  IC50: 41.7 µM (active)

## CC(C)(C)c1ccc(OCc2nc(-c3ccccn3)no2)c(Br)c1
[15]
  EC50: 0.683 µM (active)
[16]
  EC50: < 0.1 µM (active)
H4
  EC50: < 0.1 µM (active)
[17]
  EC50: 0.91 µM (active)
[18]
  EC50: 11.5 µM (active)
[19]
  EC50: 11.9 µM (active)
[20]
  EC50: 0.114 µM (active)
Caspase-3
  IC50: 33.8 µM (active)
[21]
  IC50: 5.88 µM (active)
[22]
  IC50: 17.6 µM (active)
[23]
  IC50: 13.5 µM (active)
[24]
  IC50: > 69.5 µM (inactive)

## O=C(CCS(=O)(=O)c1cccc2nonc12)N1CCCc2ccccc21
[12]
  EC50: > 50 µM (not active)

## CCOc1ccc2nc(NC(=O)CSC3=NCCS3)sc2c1
[1]
  IC50: > 100 µM (active)

## CCNc1cc2oc(=O)c(CN3CCOCC3)c(C)c2cc1C
Aminopeptidase N
  IC50: 32.2 µM (active)
[25]
  IC50: > 66 µM (inactive)
[26]
  IC50: > 66 µM (inactive)
